22 compounds from BindingDB's records for doi:10.7270/Q2B27SQ0 (Nmmlsc, 2008) can be followed below.

The structures appear in SMILES notation. pEC50: −log10 of the molar value.

The target in the first assay is Apoptosis regulator Bcl-2 (Homo sapiens, UniProt P10415). In words: PubChem AID 950.
Chain of Apoptosis regulator Bcl-2 (P10415 whole entry): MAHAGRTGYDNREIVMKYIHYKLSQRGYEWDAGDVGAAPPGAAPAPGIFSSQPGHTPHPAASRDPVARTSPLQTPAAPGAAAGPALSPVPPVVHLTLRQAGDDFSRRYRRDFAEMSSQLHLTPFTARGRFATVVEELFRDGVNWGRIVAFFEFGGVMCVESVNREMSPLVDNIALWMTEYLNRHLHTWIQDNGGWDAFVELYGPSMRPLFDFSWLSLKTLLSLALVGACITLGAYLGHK
Details: not given
Turning to `COc1cc(CN=Nc2nn3cnnc3c3ccccc23)ccc1O` [(4E)-2-methoxy-4-[[2-([1,2,4]triazolo[3,4-a]phthalazin-6-yl)hydrazinyl]methylidene]cyclohexa-2,5-dien-1-one], the negative-log EC50 (pEC50) is 5.07.
As for `CCC(/C=C1\Sc2ccc(OC)cc2N1CCO)=C\c1sc2ccc(OC)cc2[n+]1CCO`, the pEC50 is 4.79.
On to `COc1ccc(CC(=O)Nc2ccc(-c3nc4cc(C)ccc4o3)c(O)c2)cc1OC` [2-(3,4-dimethoxyphenyl)-N-[(4Z)-3-keto-4-(5-methyl-3H-1,3-benzoxazol-2-ylidene)cyclohexa-1,5-dien-1-yl]acetamide], for which the negative-log EC50 (pEC50) was 5.00.
Same read-out and setting: as for `C=CCn1c(SCC(=O)Nc2ccc3c(c2)OCO3)nnc1-c1cc(Br)ccc1O` [2-[[(5Z)-4-allyl-5-(3-bromo-6-keto-cyclohexa-2,4-dien-1-ylidene)-1H-1,2,4-triazol-3-yl]thio]-N-(1,3-benzodioxol-5-yl)acetamide], the figure is 4.80; as for `CN(C)[C@@H]1C(=O)C(C(=O)NCN2CCCC2)C(=O)[C@@]2(O)C(=O)C3C(=O)c4c(O)cccc4[C@@](C)(O)C3CC12` (stereo partly drawn) [(2Z,4S,6S,12aS)-4-(dimethylamino)-6,10,11,12a-tetrahydroxy-2-[hydroxy-(1-pyrrolidinylmethylamino)methylidene]-6-methyl-4,4a,5,5a-tetrahydrotetracene-1,3,12-trione], 4.63; as for `COc1ccc2c3c(cccc13)N(C)N=C2C` [MLS000554700], 5.70.
The compound `O=C1/C(=C\c2ccc(-c3ccccc3Cl)o2)SC(=S)N1CC1CCCO1` (configuration not stated) [(5E)-5-[[5-(2-chlorophenyl)furan-2-yl]methylidene]-3-(oxolan-2-ylmethyl)-2-sulfanylidene-1,3-thiazolidin-4-one] had a negative-log EC50 (pEC50) of 5.63.

Staying with this assay, now noted: inactive by the depositor's call.
`Clc1nss/c1=N\c1ccc(Br)cc1` [N-(4-bromophenyl)-4-chloro-5-dithiazolimine] showed a pEC50 of 4.30.
Compound `O=C(NCc1ccccn1)c1ccc2nc(-c3ccco3)c(-c3ccco3)nc2c1` [2,3-di-2-furyl-N-(pyridin-2-ylmethyl)quinoxaline-6-carboxamide] gave a negative-log EC50 (pEC50) of 4.85.
Regarding `Cc1cc2n(c1)CCn1c(C)ccc1-2` [MLS000104384], the pEC50 is 4.80.
On the same count and under the same terms, with `CN(N=Cc1ccncc1)C1=NS(=O)(=O)c2ccccc21` [isonicotinaldehyde (1,1-dioxido-1,2-benzisothiazol-3-yl)(methyl)hydrazone] the figure was 5.61; with `Fc1ccc(C2=Nc3cccc4cccc(c34)N2)cc1` [MLS000687139], 5.03.
On to `O=C(Nc1ccccc1)c1ccc2nc(-c3ccco3)c(-c3ccco3)nc2c1` [2,3-di-2-furyl-N-phenyl-6-quinoxalinecarboxamide], for which the negative logarithm of the EC50 (pEC50) is 4.44.
In turn, `CN(C)c1ccc(C=C2C(=O)NC(=O)NC2=O)cc1[N+](=O)[O-]` [5-[[4-(dimethylamino)-3-nitrophenyl]methylidene]-1,3-diazinane-2,4,6-trione] had a pEC50 of 4.79.
Turning to `COCCCn1c(N)c(C(=O)Nc2sc3c(c2C(=O)OC)CCCC3)c2nc3ccccc3nc21` [MLS000595323], the pEC50 is 5.71.
In the case of `O=C(NC1=C(Nc2ccc(Cl)cc2)C(=O)c2ccccc2C1=O)c1ccccc1`, the pEC50 is 4.75.
On the same count and under the same terms, as for `COc1cc2nc(=S)[nH]c(NCCc3ccc(S(N)(=O)=O)cc3)c2cc1OC` [MLS000674601], the figure is 6.27; as for `c1ccc(-c2nc(N3CCCCCC3)c3ccccc3n2)nc1` [SMR000046752], 4.70.
In the case of `Nc1ccc(C2=Nc3cccc4cccc(c34)N2)cc1` [SMR000175908], the pEC50 was 4.74.
Same read-out and setting: with `Cc1ccc(C(=O)/C=C/c2ccc(-c3ccc(C)cc3)o2)cc1` [1-p-Tolyl-3-(5-p-tolyl-furan-2-yl)-propenone] the figure was 5.51; with `Clc1nc(NCc2cccnc2)nc(N2CCOCC2)n1` [MLS000121154], 4.60.
Compound `COc1ccc(C2=Nn3c(nnc3-c3ccco3)SC2)cc1OC` [6-(3,4-Dimethoxy-phenyl)-3-furan-2-yl-7H-[1,2,4]triazolo[3,4-b][1,3,4]thiadiazine] had a negative-log EC50 (pEC50) of 5.92.
